Reference: PMC2848536 (Journal of medicinal chemistry, 2010)
Entries after “also recorded” stand apart in the source; their conditions may differ.

Key:
[1] = tested on: microfilaments; conditions: result in words; cited from earlier work
[2] = tested on: HCT-116 cells; conditions: read-out: IC50 against HCT-116 cells, cytotoxicity; cited from earlier work
[3] = tested on: actin cytoskeleton of HeLa cells; assay: HeLa cell microfilament; format: cell-based, human; conditions: 24 h, result in words

18-epi-latrunculol
MF disruption at 5 µM [1]: without MF disruption
IC50 [2]: 2100 nM

C/C1=C\[C@H](C)C[C@H](C)OC(=O)C[C@H](c2ccc(O)cc2)NC(=O)[C@@H](Cc2c(Br)[nH]c3ccccc23)N(C)C(=O)[C@H](C)NC(=O)[C@@H](C)C1 [Compound 1, jasplakinolide]
microfilament disruption at 80 nM [3]: exhibited microfilament disruption

C=C1C[C@H](C)C(=O)N[C@@H](C)C(=O)N(C)[C@H](Cc2c(Br)[nH]c3ccccc23)C(=O)N[C@@H](c2ccc(O)cc2)CC(=O)O[C@@H](C)C[C@@H](C)C1=O [Compound 11, jasplakinolide B]
microfilament disruption at 80 nM [3]: without microfilament disruption; also recorded: without MF disruption; also recorded: did not exhibit microfilament-disrupting activity

jasplakinolide F [Compound 4]
microfilament disruption at 80 nM [3]: exhibited microfilament disruption
